Assay results: the NIST ThermoML archive (doi:10.1016/j.jct.2007.04.005)

Assay: xn = mol fraction of the nth substance listed
Details: 298.15 K, Liquid

CCCCCCCCC [nonane] + C1CCCCC1
mass density [kg/m3]
Details	x2 = 0	x2 = 0.09303	x2 = 0.2009	x2 = 0.3051	x2 = 0.417	x2 = 0.512	x2 = 0.5996	x2 = 0.7052	x2 = 0.7993	x2 = 0.9039
8210 kPa	–	–	–	–	–	–	746.3	753.1	760.4	769.7
10230 kPa	721.4	724.4	728.5	732.8	737.9	742.5	747.9	754.7	762	771.3
11250 kPa	722.2	725.2	729.2	733.5	738.6	743.3	748.6	755.5	762.8	772.1
12260 kPa	722.9	725.9	730	734.3	739.4	744.1	749.4	756.2	763.5	772.9
14290 kPa	724.4	727.4	731.5	735.8	740.9	745.5	750.9	757.8	765.1	774.4
16310 kPa	725.8	728.8	732.9	737.2	742.3	747	752.3	759.2	766.5	775.9
18340 kPa	727.2	730.2	734.3	738.6	743.7	748.4	753.8	–	–	–
